According to patent US10674755B2, “Organic Compounds” (GIVAUDAN SA, priority 2013, dated 2020):

How the values were obtained:
[1] = Mango-flavoured beverage taste evaluation by a panel of experienced tasters; settings: 0.5 ppm dosed to mango drink (mango flavour 0.05% w/w, mango juice 0.18% w/w, sugar 8% w/w, citric acid 0.1% w/w)
Description: A mango-flavoured beverage was prepared using a standard mango flavour (0.05% w/w), mango juice (0.18% w/w), sugar (8% w/w) and citric acid (0.1% w/w).

[2] = Beef bouillon taste evaluation by a panel of experienced tasters
Description: A beef bouillon was prepared using bouillon cubes obtained from a local supermarket.

[3] = 0.5 ppm dosed to beef bouillon from bouillon cubes
[4] = 40 ppb added to beef bouillon from bouillon cubes

| SMILES | taste of the mango drink versus the reference drink (panel agreement) [1] | taste of the bouillon versus the reference (panel agreement) [2, 3] | taste of the bouillon versus the reference (panel agreement) [2, 4] |
| --- | --- | --- | --- |
| CCCCCCCC/C=C\CCCCCCCC(=O)NCCC(C)C [Example 4, N-isopentyloleamide] | tasted somewhat more astringent and fruity and had more body |  |  |
| CCCCC/C=C\C/C=C\C/C=C\C/C=C\CCCC(=O)NCCO [Example 10, N-(2-hydroxyethyl)arachidonamide] |  | had more mouthfeel and tasted more salty and more umami than the reference | tasted saltier, sweeter, more fatty and slightly more umami than the reference, and had more mouthfeel |
| CCCCCCCC/C=C\CCCCCCCC(=O)NCCCC(N)=O [Example 6, N-(4-amino-4-oxobutyl)oleamide] |  | tasted more full and had more mouthfeel than the reference |  |
| CCCCCCCC/C=C\CCCCCCCC(=O)NCCCSC [Example 2, N-(3-(methylthio)propyl)oleamide] | tasted more tropical and more juicy than the reference drink |  |  |
| CC/C=C\C/C=C\C/C=C\CCCCCCCC(=O)NCCO [Example 8, N-(2-hydroxyethyl)linolenamide] |  |  | tasted more fatty, and slightly more salty than the reference |
| CCCCCCCCCCCCCCCCCCCC(=O)NCCO [Example 9, N-(2-hydroxyethyl)eicosanamide] |  |  | tasted more fatty, beefier and smoky, tasted more fully and had more body than the reference |
